Laboratory results taken from PMC8449414, “Rational design of ASCT2 inhibitors using an integrated experimental-computational approach” (Proceedings of the National Academy of Sciences of the …, 2021).
“And” between values parts separate entries of the source, which are not always exact repeats. Equal values may be shown once.

Columns and labels:
[1] = molecular target: T1, hASCT2 (Homo sapiens, UniProt Q15758); test: Electrophysiology: inhibition of leak anion current in transfected HEK293 cells; assay type: cell-based; settings: for activity (in words, structure activity relationship): ASCT2, species not given; for Binding affinity Ki (apparent Ki) / Ki: HEK293 cells, 0 mV, 130 mM NaSCN internal, 140 mM NaCl external, No current = no inhibition of anion leak current up to highest concentration tested (§ 20-50, || 100-400, # 1500-2500 µM); for Ki: read-out: Binding affinity Ki (apparent Ki); for selectivity for hASCT2 over rEAAT1: ratio of Ki, hASCT2 versus rEAAT1
T1 construct: expressed in transfected cells; host or cells: HEK293 (ATCC CRL-11268), transient transfection
T1 sequence (Q15758 1-541): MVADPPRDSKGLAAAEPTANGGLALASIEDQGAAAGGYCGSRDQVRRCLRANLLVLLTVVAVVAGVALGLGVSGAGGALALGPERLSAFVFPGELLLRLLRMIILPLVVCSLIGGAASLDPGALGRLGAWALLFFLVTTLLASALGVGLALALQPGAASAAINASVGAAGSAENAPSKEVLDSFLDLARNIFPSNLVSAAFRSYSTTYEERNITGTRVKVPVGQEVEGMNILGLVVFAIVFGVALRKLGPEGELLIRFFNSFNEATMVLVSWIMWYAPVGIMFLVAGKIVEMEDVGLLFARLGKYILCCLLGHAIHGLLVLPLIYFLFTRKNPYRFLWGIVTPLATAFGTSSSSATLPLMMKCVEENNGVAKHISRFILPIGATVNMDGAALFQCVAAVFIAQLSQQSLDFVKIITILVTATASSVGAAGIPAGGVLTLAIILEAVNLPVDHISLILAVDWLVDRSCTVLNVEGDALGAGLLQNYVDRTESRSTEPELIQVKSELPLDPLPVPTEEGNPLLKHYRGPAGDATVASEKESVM
Procedure: (§1) Cell culture and transfection
(§2) Human embryonic kidney 293 (HEK293, ATCC CRL -11268) cells were cultured in DMEM media supplemented with 10% (v/v) fetal bovine serum (FBS), 2 mM glutamine, 1% penicillin streptomycin solution, 1 mM sodium pyruvate and non -essential amino acids. Cells were maintained at 370C in a fully humidified atmosphere containing 5% CO2. rASCT2, hASCT2, hASCT1, EAAT1, EAAT2, EAAT3, EAAT5 and YFP complementary DNAs were each used to transiently transfect HEK293 using POLYPLUS Jet-prime transfection reagent. Cells were analyzed using electrophysiological techniques 24-40 hours after transfection.
(§3) Electrophysiological techniques
(§4) Electrophysiological experiments were performed as described previously 1,2. Stock solutions of inhibitor was prepared in dimethyl sulfoxide (DMSO) up to 100 mM.
(§5) Dilutions to working concentrations were made using external buffer. The highest

[2] = molecular target: T2, rASCT2 (Rattus norvegicus, UniProt D3ZJ25); test: as above; assay type: cell-based; settings: HEK293 cells, 0 mV, 130 mM NaSCN internal, 140 mM NaCl external, No current = no inhibition of anion leak current up to highest concentration tested (§ 20-50, || 100-400, # 1500-2500 µM); for Ki: read-out: Binding affinity Ki (apparent Ki)
T2 construct: expressed in transfected cells; host or cells: HEK293 (ATCC CRL-11268), transient transfection
T2 sequence (D3ZJ25 1-555): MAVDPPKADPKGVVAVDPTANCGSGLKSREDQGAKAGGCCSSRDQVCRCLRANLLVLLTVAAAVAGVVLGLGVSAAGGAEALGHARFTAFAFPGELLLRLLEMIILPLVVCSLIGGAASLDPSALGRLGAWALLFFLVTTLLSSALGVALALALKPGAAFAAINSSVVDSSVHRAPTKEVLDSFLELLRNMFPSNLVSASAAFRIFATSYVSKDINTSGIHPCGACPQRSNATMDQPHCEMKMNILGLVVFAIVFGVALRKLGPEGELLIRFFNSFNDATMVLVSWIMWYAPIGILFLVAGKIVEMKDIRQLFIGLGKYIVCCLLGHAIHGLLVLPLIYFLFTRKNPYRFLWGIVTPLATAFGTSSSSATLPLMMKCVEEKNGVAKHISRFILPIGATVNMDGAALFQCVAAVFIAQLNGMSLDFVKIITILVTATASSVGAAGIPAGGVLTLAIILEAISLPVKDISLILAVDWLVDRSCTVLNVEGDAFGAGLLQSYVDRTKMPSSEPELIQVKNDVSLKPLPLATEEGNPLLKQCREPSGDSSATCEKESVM
Procedure: as §1, §2, §3, §4, §5

Row | Compound | Binding affinity Ki (apparent Ki) [1] | Ki [1] | Ki [2] | selectivity for hASCT2 over rEAAT1 [1] | activity (in words, structure activity relationship) [1] | Binding affinity Ki (apparent Ki) [2]
1 | O=C(O[C@@H]1CN[C@H](C(=O)O)C1)c1ccccc1-c1ccccc1 [ERA-3] | No current | – | – | – | inactive | No current
2 | O=C(O[C@@H]1CN[C@H](C(=O)O)C1)c1ccc(-c2ccc(F)cc2)cc1 [ERA-4] | – | 0.74 ± 0.09 µM | 0.65 ± 0.04 µM | – | – | –
3 | O=C(O[C@@H]1CN[C@H](C(=O)O)C1)c1ccc(-c2ccc(C(F)(F)F)cc2)cc1 [ERA-5] | – | 1.05 ± 0.21 µM | 0.27 ± 0.05 µM | – | – | –
4 | O=C(O[C@@H]1CN[C@H](C(=O)O)C1)c1ccc(Oc2ccccc2)cc1 [ERA-16] | – | 4.17 ± 0.46 µM | 3.68 ± 0.73 µM | – | – | –
5 | N[C@@H](COC(=O)c1ccc(NC(=O)c2ccccc2)cc1)C(=O)O [ERA-21] | – | 22.6 ± 3.66 µM | 4.33 ± 1.3 µM | – | – | –
6 | N[C@@H](COC(=O)c1ccccc1)C(=O)O [ERA-25] | – | 186 ± 17.2 µM | 290 ± 16.5 µM | – | – | –
7 | O=C(O[C@@H]1CN[C@H](C(=O)O)C1)C(c1ccccc1)c1ccccc1 [ERA-29] | No current | – | – | – | no activity | No current
8 | O=C(O[C@H]1CN[C@H](C(=O)O)C1)c1ccc(C(=O)c2ccccc2)cc1 [ERA-35] | – | > 500 µM | 121 ± 29.9 µM | – | – | –
9 | O=C(O[C@@H]1CN[C@H](C(=O)O)C1)c1ccc(-c2ccccc2)cc1 [Lc-BPE, L-cis hydroxyproline biphenyl ester] | – | 0.86 ± 0.11 µM | 0.74 ± 0.11 µM | – | – | –

Continued by falling Ki [2], values first:

Row | Binding affinity Ki (apparent Ki) [1] | Ki [1] | Ki [2] | selectivity for hASCT2 over rEAAT1 [1] | Compound | activity (in words, structure activity relationship) [1] | Binding affinity Ki (apparent Ki) [2]
10 | – | 690 ± 54.2 µM | 266 ± 42.7 µM | – | N[C@@H](COC(=O)c1cccnc1)C(=O)O [ERA-28] | – | –
11 | – | 5.65 µM and 5.7 µM | 18.8 ± 4.97 µM | sevenfold | O=C(O[C@@H]1CN[C@H](C(=O)O)C1)c1ccc(C(O)c2ccccc2)cc1 (some centres unmarked) [ERA-9] | – | –
12 | No current | – | 8.17 ± 1.05 µM | – | O=C(O[C@@H]1CN[C@H](C(=O)O)C1)c1ccc(OCc2ccccc2)cc1 [ERA-31] | – | –
13 | – | 2.94 ± 0.93 µM | 3.37 ± 0.41 µM | threefold | O=C(Nc1ccc(C(=O)O[C@@H]2CN[C@H](C(=O)O)C2)cc1)c1ccc(C(F)(F)F)cc1 [ERA-11] | – | –
14 | – | 1.12 ± 0.11 µM | 0.97 ± 0.08 µM | – | Cc1ccccc1-c1ccc(C(=O)O[C@@H]2CN[C@H](C(=O)O)C2)cc1 [ERA-6] | – | –
